In test [1] the target is T1, Vascular endothelial growth factor receptor 2 (Homo sapiens, UniProt P35968). The experiment in a line: Inhibition of recombinant N terminal GST-tagged human KDR (805 to 1356) expressed in baculovirus infected Sf9 cells after 90 mins by caliper mobility shift assay.
The target of test [2] is T2, Fibroblast growth factor receptor 1 (Homo sapiens, UniProt P11362).
Description: Inhibition of human FGFR1 phosphorylation expressed in COS1 cells after 1 hr by immunoblotting
Test [3] concerns the target T2, Fibroblast growth factor receptor 1. The test can be described thus: biochemical.
Description: Inhibition of recombinant N terminal GST-tagged human FGFR1 (456 to 765) expressed in baculovirus infected Sf21 cells after 40 mins by caliper mobility shift assay
In test [4] the target is T3, Insulin-like growth factor 1 receptor (Homo sapiens, UniProt P08069). The experiment in a line: Inhibition of recombinant N terminal His6-tagged human IGF1R (959 to end) expressed in baculovirus infected Sf21 cells after 80 mins by caliper mobility shift assay.
Test [5] deals with T1, Vascular endothelial growth factor receptor 2. The experiment in a line: Inhibition of human KDR phosphorylation expressed in VEGF-stimulated HUVEC treated 90 mins before VEGF stimulation measured after 5 mins by ELISA. In kind it is cell-based. For orientation: ELISA stands for enzyme-linked immunosorbent assay.
Test [6] deals with T3, Insulin-like growth factor 1 receptor. The test can be described thus: Inhibition of human IGF1R phosphorylation expressed in IGF-1-stimulated knockout mouse R+ cells treated 30 mins before IGF-1 stimulation measured after 20 mins by immunofluorescence.
For test [7], the target named is Dual specificity mitogen-activated protein kinase kinase 1 (Homo sapiens, UniProt Q02750). The experiment in a line: Inhibition of MEK1 fused with GST by autoradiography.

Molecules are shown by their SMILES.

T2 sequence (P11362 whole entry): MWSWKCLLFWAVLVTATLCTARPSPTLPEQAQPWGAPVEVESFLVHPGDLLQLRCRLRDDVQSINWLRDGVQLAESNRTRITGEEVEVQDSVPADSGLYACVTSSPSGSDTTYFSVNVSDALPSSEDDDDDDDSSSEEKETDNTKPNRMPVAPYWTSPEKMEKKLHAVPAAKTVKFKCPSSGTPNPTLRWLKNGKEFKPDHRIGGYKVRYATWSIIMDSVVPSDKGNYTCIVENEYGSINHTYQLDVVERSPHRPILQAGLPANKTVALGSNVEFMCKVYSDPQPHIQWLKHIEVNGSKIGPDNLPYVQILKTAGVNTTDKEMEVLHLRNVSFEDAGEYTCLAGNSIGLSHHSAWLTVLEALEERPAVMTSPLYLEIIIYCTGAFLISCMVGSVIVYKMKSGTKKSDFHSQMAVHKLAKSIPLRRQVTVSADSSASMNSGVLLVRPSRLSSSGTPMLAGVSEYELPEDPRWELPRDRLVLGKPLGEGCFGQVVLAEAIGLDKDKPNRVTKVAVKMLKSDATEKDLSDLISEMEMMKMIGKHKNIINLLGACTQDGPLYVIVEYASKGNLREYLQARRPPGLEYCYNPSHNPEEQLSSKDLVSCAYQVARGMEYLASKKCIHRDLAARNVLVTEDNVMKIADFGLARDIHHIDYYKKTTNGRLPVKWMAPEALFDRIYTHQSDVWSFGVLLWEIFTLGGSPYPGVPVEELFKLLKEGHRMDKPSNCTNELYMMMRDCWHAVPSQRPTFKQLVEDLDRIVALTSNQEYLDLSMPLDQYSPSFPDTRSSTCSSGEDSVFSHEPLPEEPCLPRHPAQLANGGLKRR
T1 sequence (P35968 whole entry): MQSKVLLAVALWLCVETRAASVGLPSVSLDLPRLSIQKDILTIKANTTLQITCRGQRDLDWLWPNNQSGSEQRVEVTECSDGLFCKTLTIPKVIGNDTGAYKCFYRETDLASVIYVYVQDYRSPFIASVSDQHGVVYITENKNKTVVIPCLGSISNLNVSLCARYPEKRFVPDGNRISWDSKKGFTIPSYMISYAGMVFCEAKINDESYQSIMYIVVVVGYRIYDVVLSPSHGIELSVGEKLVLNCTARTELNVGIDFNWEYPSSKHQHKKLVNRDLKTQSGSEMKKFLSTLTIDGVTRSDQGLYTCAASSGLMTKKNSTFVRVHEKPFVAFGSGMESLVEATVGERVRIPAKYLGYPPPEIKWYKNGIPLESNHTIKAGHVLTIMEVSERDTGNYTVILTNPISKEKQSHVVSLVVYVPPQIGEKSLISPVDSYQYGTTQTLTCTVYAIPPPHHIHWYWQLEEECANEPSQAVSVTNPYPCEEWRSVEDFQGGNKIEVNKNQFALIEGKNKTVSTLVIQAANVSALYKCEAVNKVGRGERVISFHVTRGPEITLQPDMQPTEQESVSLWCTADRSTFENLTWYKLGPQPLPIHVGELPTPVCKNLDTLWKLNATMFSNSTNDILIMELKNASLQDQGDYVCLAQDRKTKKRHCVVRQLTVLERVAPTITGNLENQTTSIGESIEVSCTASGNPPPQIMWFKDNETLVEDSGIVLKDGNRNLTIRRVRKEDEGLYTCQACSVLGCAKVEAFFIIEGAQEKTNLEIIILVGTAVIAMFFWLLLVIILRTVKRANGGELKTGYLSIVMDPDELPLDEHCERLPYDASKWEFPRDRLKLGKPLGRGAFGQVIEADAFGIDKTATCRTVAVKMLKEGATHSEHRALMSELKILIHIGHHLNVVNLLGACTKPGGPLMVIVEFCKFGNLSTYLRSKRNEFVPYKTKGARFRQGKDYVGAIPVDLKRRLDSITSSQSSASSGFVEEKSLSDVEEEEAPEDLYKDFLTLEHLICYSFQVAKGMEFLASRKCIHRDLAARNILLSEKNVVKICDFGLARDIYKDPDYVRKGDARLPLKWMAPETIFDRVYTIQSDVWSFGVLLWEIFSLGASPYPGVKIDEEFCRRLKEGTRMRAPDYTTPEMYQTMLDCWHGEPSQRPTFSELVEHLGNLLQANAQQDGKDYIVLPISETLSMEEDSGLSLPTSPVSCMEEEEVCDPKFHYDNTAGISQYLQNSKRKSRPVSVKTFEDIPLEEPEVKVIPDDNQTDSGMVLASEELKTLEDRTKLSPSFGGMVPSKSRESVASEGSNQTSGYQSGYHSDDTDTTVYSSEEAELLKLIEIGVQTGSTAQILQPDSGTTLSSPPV
Dual specificity mitogen-activated protein kinase kinase 1, sequence (Q02750 whole entry, the tested form may be a part): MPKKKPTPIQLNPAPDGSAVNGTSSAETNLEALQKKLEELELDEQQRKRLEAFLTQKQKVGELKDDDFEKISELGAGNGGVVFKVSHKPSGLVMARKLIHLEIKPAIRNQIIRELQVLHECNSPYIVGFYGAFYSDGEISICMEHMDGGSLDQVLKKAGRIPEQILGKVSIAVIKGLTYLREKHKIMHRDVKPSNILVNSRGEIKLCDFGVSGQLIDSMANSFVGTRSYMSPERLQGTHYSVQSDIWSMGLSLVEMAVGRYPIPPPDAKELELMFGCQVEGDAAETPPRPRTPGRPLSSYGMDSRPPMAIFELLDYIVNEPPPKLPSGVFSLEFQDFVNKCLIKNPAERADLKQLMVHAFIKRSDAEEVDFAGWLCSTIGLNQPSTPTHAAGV

For the compound `Cc1cc(Nc2nc(NCCc3cccnc3)ncc2Br)[nH]n1`, the IC50 in test [1] was 0.631 µM; in test [2] it was 2.51 µM; in test [3], 0.501 µM; in test [4] it was 6.31 µM; in test [5], more than 10 µM; in test [6], 3.98 µM.
As for `C=CCNc1ncc(Br)c(Nc2cc(C)[nH]n2)n1`, the IC50 in test [1] is 1 µM; in test [4], 3.98 µM; in test [5], 0.794 µM; in test [6], 6.31 µM.
Turning to `Cc1cc(Nc2nc(NCc3cc(C)no3)ncc2Br)[nH]n1`, the IC50 in test [1] was 0.631 µM; in test [2] it was 0.158 µM; in test [3] it was 0.0631 µM; in test [4] it was 7.94 µM; in test [5], 6.31 µM; in test [6] it was 6.31 µM.
As to `Cc1cc(Nc2nc(NCc3cc(C(C)(C)C)no3)ncc2Br)[nH]n1`, the 50% inhibitory concentration (IC50) is 3.98 µM in test [1]; 0.158 µM in test [2]; 0.0316 µM in test [3]; 10 µM in test [4]; more than 10 µM in test [5]; 3.16 µM in test [6].
Consider `COCCCc1cc(Nc2nc(NCc3cc(C)no3)ncc2Br)[nH]n1`, for which the IC50 in test [1] was 1.26 µM; in test [2], 0.794 µM; in test [3] it was 0.0631 µM; in test [4] it was 20 µM; in test [5], more than 10 µM; in test [6], more than 20 µM.
Take `CCCc1cc(Nc2nc(NCc3cc(C)no3)ncc2Br)n[nH]1`: the IC50 in test [1] was 0.158 µM; in test [2] it was 0.1 µM; in test [3] it was 0.01 µM; in test [4] it was 0.398 µM; in test [5], 6.31 µM; in test [6], 0.501 µM.
`Cc1cc(CNc2ncc(Br)c(Nc3cc(CCc4ccccc4)[nH]n3)n2)on1`: the IC50 is 0.0251 µM in test [1]; 0.0631 µM in test [2]; 0.00251 µM in test [3]; 6.31 µM in test [4]; 1.58 µM in test [5]; 10 µM in test [6].
As for `COc1cc(CCc2cc(Nc3ccnc(NCc4cc(C)no4)n3)n[nH]2)cc(OC)c1`, the IC50 was 0.0794 µM in test [1]; less than 0.0158 µM in test [2]; 0.002 µM in test [3]; 6.31 µM in test [4]; 1.58 µM in test [5]; 5.01 µM in test [6].
With `Cc1cc(CNc2ncc(Cl)c(Nc3cc(C)[nH]n3)n2)on1`, the results for the IC50 in test [1] and in test [4] were 0.501 µM and 7.94 µM, respectively.
In the same order, the values of `Cc1cc(CNc2nccc(Nc3cc(C)[nH]n3)n2)on1` are 1 µM and 12.6 µM.
With `COCCCc1cc(Nc2ccnc(NCc3cc(C)no3)n2)n[nH]1`, the IC50 in test [1] is 2.51 µM.
For the compound `Cc1cc(CNc2nccc(Nc3cc(CCc4ccccc4)[nH]n3)n2)on1`, the 50% inhibitory concentration (IC50) in test [1] is 0.126 µM.
`Cc1cc(Nc2nc(NCc3ccccn3)ncc2Br)n[nH]1`: the concentration for half-maximal inhibition (IC50) is 1.58 µM in test [1], 0.2 µM in test [3] and 12.6 µM in test [4].
For `Cc1cc(Nc2nc(NCCCc3c[nH]nc3C)ncc2Br)n[nH]1`, the 50% inhibitory concentration (IC50) is 0.501 µM in test [1], 0.126 µM in test [3] and 6.31 µM in test [4].
On to `Cc1cc(Nc2nc(NCCc3ccco3)ncc2Br)n[nH]1`, for which the values for the IC50 in test [1], in test [3] and in test [4] were 0.2 µM, 0.2 µM and 3.98 µM, respectively.
Turning to `Cc1cnc(CNc2ncc(Br)c(Nc3cc(C)[nH]n3)n2)cn1`, the IC50 in test [1] was 1 µM; in test [3] it was 0.1 µM; in test [4] it was 12.6 µM.
For `Cc1cc(CCNc2ncc(Br)c(Nc3cc(C)[nH]n3)n2)on1` the same measures were 0.501 µM, 0.398 µM and 15.8 µM.
In the case of `Cc1cc(Nc2nc(NCc3ncccc3C)ncc2Br)n[nH]1`, the figures for the IC50 in test [1] and in test [4] were 0.501 µM and 50.1 µM, respectively.
As for `Cc1cc(Nc2nc(NCc3cc(C(=O)N4CCCC4)no3)ncc2Br)n[nH]1`, the half-maximal inhibitory concentration (IC50) is 15.8 µM in test [1] and 10 µM in test [4].
For `Cc1cc(Nc2ccnc(NCc3cc(C4CC4)no3)n2)n[nH]1`, the IC50 in test [1] is 0.794 µM; in test [3], 0.0251 µM; in test [4], 10 µM.
With `Cc1cc(Nc2ccnc(NCc3cc(C(N)=O)no3)n2)[nH]n1`, the IC50 in test [1] was 1.26 µM; in test [3], 0.1 µM; in test [4], 7.94 µM.
Take `Cc1cc(CNc2nccc(Nc3cc(CO)[nH]n3)n2)on1`: the IC50 was 20 µM in test [1] and 39.8 µM in test [4].
With `CCc1cc(Nc2nc(NCc3ccccn3)ncc2Br)n[nH]1`, the IC50 in test [1] was 0.501 µM; in test [3], 0.0398 µM; in test [4], 3.16 µM.
In the case of `CCc1cc(Nc2nc(NCc3cc(-c4ccccn4)no3)ncc2Br)n[nH]1`, the concentration for half-maximal inhibition (IC50) in test [1] was 3.16 µM; in test [4] it was 0.1 µM.
For the compound `CCCc1cc(Nc2nc(NCc3cccnc3)ncc2Br)n[nH]1`, the IC50 in test [1] was 0.126 µM; in test [4] it was 1.58 µM.
On to `CC(C)c1cc(Nc2nc(NCc3cccnc3)ncc2Br)n[nH]1`, for which the half-inhibitory concentration (IC50) in test [1] and in test [4] was 0.398 µM throughout.
`COCCCc1cc(Nc2ccnc(NCc3cc(C4CC4)no3)n2)n[nH]1`: the half-maximal inhibitory concentration (IC50) is 1.58 µM in test [1] and 12.6 µM in test [4].
In the same order, the values of `COCCCc1cc(Nc2ccnc(NCc3cc(C(N)=O)no3)n2)[nH]n1` are 1.26 µM and 100 µM.
Take `COc1cc(CCc2cc(Nc3ccnc(NCc4ccccn4)n3)[nH]n2)cc(OC)c1`: the IC50 in test [1] was 0.398 µM; in test [3], 0.00501 µM; in test [4], 79.4 µM.
Consider `COc1cc(CCc2cc(Nc3ccnc(NCc4cc(C)on4)n3)n[nH]2)cc(OC)c1`, for which the values for the IC50 in test [1], in test [3] and in test [4] were 0.126 µM, 0.002 µM and 12.6 µM, respectively.
In test [7], `CCN(CC)CCCCNc1ncc2cc(-c3cc(OC)cc(OC)c3)c(NC(=O)NC(C)(C)C)nc2n1` [PD-173074] showed an IC50 of more than 50 µM.

As usually defined, the IC50 is the concentration at which inhibition is half-maximal.
